17 molecules from PubChem BioAssay (NCI) can be followed below.

Values joined by “and” are separate entries in the source; they are usually repeats but may differ in a detail not shown here. Equal values may be shown once.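 48-hour exposure; five concentrations; linearly interpolated endpoints. GI50 is the concentration that inhibits growth by half. TGI denotes the concentration required for complete inhibition of growth.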 Some results are limits rather than exact numbers.

In one test the test system is IGROV1 ovarian. Put plainly: DTP human tumour cell line panel, 48 h.
With `C/C(=N\O)c1ccc(Nc2cc(-n3nnc4ccccc43)nc3ccccc23)cc1`, the GI50 (usually the concentration that inhibits growth by half) was 12.9 µM and the concentration for total growth inhibition (TGI) – broadly, the concentration at which net growth stops – was determined as 42.5 µM.

For `Clc1ccc(COC(Cn2ccnc2)c2ccc(Cl)cc2Cl)cc1` (stereo not given), the GI50 was 2.62 µM; the total growth inhibition concentration (TGI) is 12.3 µM and 25.8 µM and 26.1 µM.

As to `CC[C@H](C)[C@H](NC(=O)c1cnccn1)C(=O)N(C)[C@H](C[C@@H](OC(C)=O)c1nc(C(=O)N[C@@H](Cc2ccccc2)C[C@H](C)C(=O)OC)cs1)C(C)C`, the GI50 is 1.04 µM and the concentration for total growth inhibition (TGI) is over 33.3 µM.

`Nc1c(C(=O)Nc2ccc([As](=O)(O)O)cc2)cnc2nnnn12` displayed a TGI of over 100 µM.

`CC(C)n1c(/C=C/[C@@H](O)C[C@@H](O)CC(=O)O)c(-c2ccc(F)cc2)c2ccccc21`: the GI50 is 2.99 µM and 2.68 µM; the TGI is over 100 µM.

The molecule `N#CC(C#N)SCc1ccccc1` gave a TGI of over 100 µM.

On to `CCOc1ccc(NCC2CC/C(=C\C=C\c3ccccc3)C2=O)cc1` (stereo not given), for which the concentration for total growth inhibition (TGI) was found to be 17.5 µM.

For `Cc1cc(N(CCNc2ccnc3cc(Cl)ccc23)Cc2ccc3c(c2)OCO3)nc(N2CCN(C)CC2)n1`, the GI50 is 3.09 µM and the TGI stood at 12.7 µM.

For a further test, the system named is MCF7 breast. Put plainly: DTP human tumour cell line panel, 48 h.
In the case of `Cc1ccc(C(=O)Cc2nc3c([nH]c2=O)c(C)nn3-c2ccccc2)c(C)c1`, the TGI is over 10 µM.

`Clc1ccccc1NN(Cc1ccccn1)c1ccccc1Cl` displayed a total growth inhibition concentration (TGI) of over 100 µM.

With `Cn1cc(C2=C(c3cn(C)c4ccc(N)cc34)C(=O)NC2=O)c2ccccc21`, the GI50 is 4.76 µM and the concentration for total growth inhibition (TGI) is over 25 µM.

Regarding `S=C(N/N=C/c1cc(Cl)cc(Cl)c1)NC12CC3CC(CC(C3)C1)C2`, the GI50 was over 82.3 µM and the concentration for total growth inhibition (TGI) was over 100 µM.

Turning to `CCCCN1C(=O)CC2[C@@H]3CCc4cc(OC)ccc4C3CC[C@]2(C)C1=O` (stereo not given in full), the total growth inhibition concentration (TGI) was over 10 µM.

As to `COc1cc2cc(Oc3ccc(NC(=O)c4cccc(C(F)(F)F)c4)cc3)c(C)nc2cc1OC`, the GI50 is 3.47 µM and the TGI is 24.3 µM.

In the case of `Cc1nc(SCC(N)=O)c2sc(=S)n(-c3ccccc3)c2n1`, the total growth inhibition concentration (TGI) is over 10 µM.

With `COc1cc(-c2oc3ccccc3c(=O)c2O)cc(OC)c1OC`, the total growth inhibition concentration (TGI) was over 100 µM.

As to `CSc1ccc(/C=C2\CNC/C(=C\c3ccc(SC)cc3)C2=O)cc1`, the GI50 was > 371 µM and 58.8 µg/mL; the TGI was > 371 µM and 150 µg/mL.

In the case of `C/C(=N\O)c1ccc(Nc2cc(-n3nnc4ccccc43)nc3ccccc23)cc1`, the GI50 was 5.24 µM and the TGI turned out to be 14.4 µM.

For `Clc1ccc(COC(Cn2ccnc2)c2ccc(Cl)cc2Cl)cc1` (stereo not given), the GI50 was 2.43 µM; the concentration for total growth inhibition (TGI) is 6.63 µM and 28.7 µM and 24 µM.

`CC[C@H](C)[C@H](NC(=O)c1cnccn1)C(=O)N(C)[C@H](C[C@@H](OC(C)=O)c1nc(C(=O)N[C@@H](Cc2ccccc2)C[C@H](C)C(=O)OC)cs1)C(C)C`: the GI50 is 0.0909 µM and the TGI was over 33.3 µM.

`Nc1c(C(=O)Nc2ccc([As](=O)(O)O)cc2)cnc2nnnn12` displayed a TGI of over 100 µM.

For `CC(C)n1c(/C=C/[C@@H](O)C[C@@H](O)CC(=O)O)c(-c2ccc(F)cc2)c2ccccc21`, the GI50 was 20.7 µM and 16.6 µM; the concentration for total growth inhibition (TGI) was over 100 µM.

Turning to `N#CC(C#N)SCc1ccccc1`, the total growth inhibition concentration (TGI) is over 100 µM.

`CCOc1ccc(NCC2CC/C(=C\C=C\c3ccccc3)C2=O)cc1` (stereo not given): the concentration for total growth inhibition (TGI) is 12.3 µM.

Take `Cc1cc(N(CCNc2ccnc3cc(Cl)ccc23)Cc2ccc3c(c2)OCO3)nc(N2CCN(C)CC2)n1`: the GI50 was 2.4 µM and the TGI was found to be 10.9 µM.

Another test relates to MOLT-4 leukemia. Put plainly: DTP human tumour cell line panel, 48 h.
`Cc1ccc(C(=O)Cc2nc3c([nH]c2=O)c(C)nn3-c2ccccc2)c(C)c1` registered a TGI of over 10 µM.

`Clc1ccccc1NN(Cc1ccccn1)c1ccccc1Cl` displayed a TGI of 41.9 µM. This counts as double-digit micromolar.

Take `Cn1cc(C2=C(c3cn(C)c4ccc(N)cc34)C(=O)NC2=O)c2ccccc21`: the GI50 is 10.2 µM and the concentration for total growth inhibition (TGI) is over 25 µM.

For `S=C(N/N=C/c1cc(Cl)cc(Cl)c1)NC12CC3CC(CC(C3)C1)C2`, the GI50 was over 100 µM and the TGI was over 100 µM.

Regarding `CCCCN1C(=O)CC2[C@@H]3CCc4cc(OC)ccc4C3CC[C@]2(C)C1=O` (stereo not given in full), the total growth inhibition concentration (TGI) is over 10 µM.

Consider `COc1cc2cc(Oc3ccc(NC(=O)c4cccc(C(F)(F)F)c4)cc3)c(C)nc2cc1OC`, for which the GI50 is 4.72 µM and the concentration for total growth inhibition (TGI) was over 100 µM.

Turning to `Cc1nc(SCC(N)=O)c2sc(=S)n(-c3ccccc3)c2n1`, the total growth inhibition concentration (TGI) was over 10 µM.

`COc1cc(-c2oc3ccccc3c(=O)c2O)cc(OC)c1OC` showed a total growth inhibition concentration (TGI) of over 100 µM.

Consider `CSc1ccc(/C=C2\CNC/C(=C\c3ccc(SC)cc3)C2=O)cc1`, for which the GI50 was 150 µg/mL; the TGI is > 371 µM and 150 µg/mL.

For the molecule `C/C(=N\O)c1ccc(Nc2cc(-n3nnc4ccccc43)nc3ccccc23)cc1`, the GI50 is 2.85 µM and the concentration for total growth inhibition (TGI) amounted to 15.4 µM.

Regarding `Clc1ccc(COC(Cn2ccnc2)c2ccc(Cl)cc2Cl)cc1` (stereo not given), the GI50 was 2.03 µM; the TGI is 5.89 µM and 20.7 µM and 18.1 µM.

Turning to `CC[C@H](C)[C@H](NC(=O)c1cnccn1)C(=O)N(C)[C@H](C[C@@H](OC(C)=O)c1nc(C(=O)N[C@@H](Cc2ccccc2)C[C@H](C)C(=O)OC)cs1)C(C)C`, the GI50 was 2.23 µM and the TGI is over 33.3 µM.

Molecule `Nc1c(C(=O)Nc2ccc([As](=O)(O)O)cc2)cnc2nnnn12` yielded a concentration for total growth inhibition (TGI) of over 100 µM.

With `CC(C)n1c(/C=C/[C@@H](O)C[C@@H](O)CC(=O)O)c(-c2ccc(F)cc2)c2ccccc21`, the GI50 was 16.4 µM and 21.9 µM; the concentration for total growth inhibition (TGI) was 67.5 µM and > 100 µM.

As to `N#CC(C#N)SCc1ccccc1`, the TGI is over 100 µM.

`CCOc1ccc(NCC2CC/C(=C\C=C\c3ccccc3)C2=O)cc1` (stereo not given): the concentration for total growth inhibition (TGI) is over 42.9 µM.

With `Cc1cc(N(CCNc2ccnc3cc(Cl)ccc23)Cc2ccc3c(c2)OCO3)nc(N2CCN(C)CC2)n1`, the GI50 is 2.09 µM and the TGI was 8.36 µM.
